Test [1] concerns D222D clone 2 or a MelanA26–35-reactive clone vs. cognate peptide-pulsed LCLs. In words: inhibition of lysis of cognate peptide-pulsed LCLs by CD8^+ T-cell clones. The note with it: D222D clone 2 or MelanA26–35-reactive clone; 4 h, E/T 1/1; triplicate; Fig. 1F. It counts as cell-based, human.
Test [2] concerns ZnT8_186–194-reactive CD8^+ T-cell clones. In words: effect on MMr staining of ZnT8_186–194-reactive CD8^+ T-cell clones. It counts as cell-based, human. Particulars: normalized MMr fluorescence intensities between clones; Fig. 2B.
The target in test [3] is recombinant HLA-A2 molecules (Homo sapiens, UniProt P04439, D140Y/D185E/D98H/E176V/E277Q/G131W/G231S/I119V/I121R/I166T/I218V/L300P/L318F/N151K/N90K/P208A/P217A/Q86G/Q94H/R138H/R169H/T345S). In words: peptide binding to recombinant HLA-A2.
Test [4] deals with ZnT8_186–194-reactive CD8^+ T-cell clone H017N. The class given is cell-based, human. The note with it: peptide-pulsed LCLs, 0.1 µM, 6 h, percent cytokine^+ cells, two experiments, p=0.008, Fig. 7E.

Ends that are not written are not given here.

One may read the Kd as the constant that tells how readily two partners part at equilibrium.

Consider `C/C=C/[C@H]1O[C@@](O)([C@@H](C)[C@H](O)[C@H](C)[C@H]2OC(=O)/C(OC)=C/C(C)=C/[C@@H](C)[C@@H](O)[C@@H](CC)[C@@H](O)[C@H](C)C/C(C)=C/C=C/[C@@H]2OC)C[C@@H](O[C@H]2C[C@@H](O)[C@H](OC(N)=O)[C@@H](C)O2)[C@@H]1C` [concanamycin A], for which the “inhibition of lytic activity” value in test [1] is reported as “inhibited significantly”. On to `Cc1nc(Nc2ncc(C(=O)Nc3c(C)cccc3Cl)s2)cc(N2CCN(CCO)CC2)n1` [dasatinib], for which the “effect on variability of MMr fluorescence intensity” value in test [2] is “reduced variability”. With AVAANIVLTV [ZnT8_185–194], the equilibrium dissociation constant (Kd) in test [3] is 0.207 µM. As to `C[C@H]1CCC/C=C/[C@@H]2C[C@H](O)C[C@H]2[C@H](O)/C=C/C(=O)O1` [brefeldin A], the “inhibition of lytic activity” value in test [1] is “marginally”.

For the molecule VAANIVLTV [ZnT8_186–194], in test [3], the Kd turned out to be 0.015 µM. For the molecule KAANIVLTV [B. stercoris mimotope], the “agonist potency relative to native ZnT8_186–194 peptide” value in test [4] is “stronger agonist potency”.

Source of the values: paper PMC5874133 (Science immunology, 2018).
